Test results published in patent publication US12129237B2, “Substituted diaminocarboxamide and diaminocarbonitrile pyrimidines, compositions thereof, and methods of treatment therewith” (SIGNAL PHARMACEUTICALS, LLC, priority 2011, dated 2024).

Molecular target: T1, JNK1 (Homo sapiens, UniProt P45983)
T1 construct: purchased Carna Biosciences
Assay: JNK1 biochemical assays (one or more of: time resolved fluorescence, Z'-LYTE Cascade, radioactive)
Conditions: one or more of the JNK1 biochemical assays; read-out: Act. Level (JNK1 IC50 activity level)
Method: JNK1 Assay. A 384-well time resolved fluorescence assay was used to monitor JNK1 activity. The JNK1 assay was run in the following assay buffer: 50 mM HEPES, 10 mM MgCl2, 1 mM EGTA, 2 mM DTT, and 0.01% Tween 20. To initiate the reaction 100 nM of ULight™-labeled 4EBP1 peptide (Perkin-Elmer) and 5 μM of ATP were mixed with 500 pM of JNK1 (Carna Biosciences), for a total assay volume of 20 μL in each well. The assay was incubated at room temperature for 1 h and terminated using a mixture of 30 mM EDTA and 4 nM Eu-anti-4EBP1, by adding 20 μL of stop solution to each well. Plates were read on a Perkin-Elmer Envision Reader.
JNK1 Assay. The JNK1 Z′-LYTE® Cascade kinase assay was run in the following buffer: 50 mM HEPES at pH 7.5, 0.01% BRIJ-35, 10 mM MgCl2, 1 mM EGTA, and 1 mM DTT. […] The assay was incubated at room temperature for 1 h. […] The data was then read on a fluorescence plate reader and analyzed.
JNK1 assay. The radioactive JNK kinase assay was carried out in a 96-well plate format at a final volume of 100 μL. […] JNK1 was diluted in the following dilution buffer (20 mM HEPES pH 7.6, 0.1 mM EDTA, 2.5 mM MgCl2, 0.004% (w/v) Triton X100, 2 μg/ml Leupeptin, 20 mM B-glycerol phosphate, 0.1 mM Na3VO4 dithiothreitol) and then pre-mixed with cJun diluted in the substrate solution buffer (20 mM HEPES pH 7.6, 50 mM NaCl, 0.1 mM EDTA, 2.5 mM MgCl2, 0.05% (w/v) Triton X100). […] The enzyme, substrate and inhibitor mixture was allowed to equilibrate at room temperature for 15 minutes. The reaction was started by the addition of 10 μL of 10×ATP in kinase buffer (130 mM MgCl2, 6 mM dithiothreitol, 150 mM para-nitrophenyl phosphate, 100 μCi/ml γ-[^33P]-ATP). Reactions were allowed to proceed for 60 minutes before precipitation of protein via trichloroacetic acid (7.2% TCA final). […] The precipitate was washed with Phosphate Buffered Saline and the amount of phosphate incorporated into cJun was quantified by scintillation counting using a Packard Topcount-NXT. All assays were conducted under conditions where phosphate incorporation was linear with respect to time and enzyme concentration.

T1 sequence (P45983 whole entry): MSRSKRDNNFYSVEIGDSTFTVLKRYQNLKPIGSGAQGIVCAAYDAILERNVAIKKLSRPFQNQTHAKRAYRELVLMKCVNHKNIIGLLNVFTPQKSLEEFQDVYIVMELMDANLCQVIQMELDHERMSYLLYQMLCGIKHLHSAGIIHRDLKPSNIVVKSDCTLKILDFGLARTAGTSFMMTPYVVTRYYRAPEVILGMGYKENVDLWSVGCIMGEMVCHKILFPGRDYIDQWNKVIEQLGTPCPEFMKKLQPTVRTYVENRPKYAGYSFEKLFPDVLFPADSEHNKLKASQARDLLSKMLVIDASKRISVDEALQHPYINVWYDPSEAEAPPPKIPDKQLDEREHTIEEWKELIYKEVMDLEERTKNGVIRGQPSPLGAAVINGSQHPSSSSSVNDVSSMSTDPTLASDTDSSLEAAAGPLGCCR

SMILES | IC50 [nM]
CC1(C)CCC(Nc2nc(NC(C)(C)C)ncc2C(N)=O)C(O)C1 (stereo not shown) [Example 342, 2-(tert-butylamino)-4-(2-hydroxy-4,4-dimethylcyclohexylamino)pyrimidine-5-carboxamide] | 200 to 800
CC1(C)CCC(Nc2nc(NC(C)(C)C)ncc2C(N)=O)C(O)C1 (stereo not shown) [Example 343, 2-(tert-butylamino)-4-(2-hydroxy-4,4-dimethylcyclohexylamino)pyrimidine-5-carboxamide] | < 200
CCO[C@H]1CC[C@H](Nc2ncc(C(N)=O)c(NC34CC(C3)C4)n2)CC1 [Example 344, 4-(bicyclo[1.1.1]pentan-1-ylamino)-2-((1r,4r)-4-ethoxycyclohexylamino)pyrimidine-5-carboxamide] | < 200
CCC(C)(CC)Nc1ncc(C(N)=O)c(N[C@@H]2CC[C@@H](C)[C@H](O)C2)n1 [Example 345, 4-((1R,3R,4R)-3-hydroxy-4-methylcyclohexylamino)-2-(3-methylpentan-3-ylamino)pyrimidine-5-carboxamide] | < 200
C[C@]1(O)CCC[C@@H](Nc2nc(NC34CC(C3)C4)ncc2C(N)=O)C1 [Example 347, 2-(bicyclo[1.1.1]pentan-1-ylamino)-4-((1R,3S)-3-hydroxy-3-methylcyclohexylamino)pyrimidine-5-carboxamide] | < 200
CC1(Nc2ncc(C(N)=O)c(N[C@@H]3CCC[C@](C)(O)C3)n2)CCC1 [Example 353, 4-((1R,3S)-3-hydroxy-3-methylcyclohexylamino)-2-(1-methylcyclobutylamino)pyrimidine-5-carboxamide] | < 200
CC1(Nc2ncc(C(N)=O)c(N[C@@H]3CCC[C@H](O)C3)n2)CCC1 [Example 354, 4-((1R,3S)-3-hydroxycyclohexylamino)-2-(1-methylcyclobutylamino)pyrimidine-5-carboxamide] | < 200
CCC1(Nc2nc(N[C@H]3CC[C@H](O)CC3)ncc2C(N)=O)CC1 [Example 356, 4-(1-ethylcyclopropylamino)-2-((1r,4r)-4-hydroxycyclohexylamino)pyrimidine-5-carboxamide] | < 200
CC1(Nc2nc(N[C@H]3CC[C@H](O)CC3)ncc2C(N)=O)CCCCC1 [Example 357, 2-((1r,4r)-4-hydroxycyclohexylamino)-4-(1-methylcyclohexylamino)pyrimidine-5-carboxamide] | < 200
CO[C@H]1CC[C@H](Nc2ncc(C(N)=O)c(NC3(C)CCCCC3)n2)CC1 [Example 358, 2-((1r,4r)-4-methoxycyclohexylamino)-4-(1-methylcyclohexylamino)pyrimidine-5-carboxamide] | < 200
CCC1(Nc2nc(N[C@H]3CC[C@H](O)CC3)ncc2C(N)=O)CCC1 [Example 362, 4-(1-ethylcyclobutylamino)-2-((1r,4r)-4-hydroxycyclohexylamino)pyrimidine-5-carboxamide] | < 200
CCC(CC)Nc1nc(N[C@H]2CC[C@H](O)CC2)ncc1C(N)=O [Example 363, 2-((1r,4r)-4-hydroxycyclohexylamino)-4-(pentan-3-ylamino)pyrimidine-5-carboxamide] | < 200
CC(C)(C)Nc1ncc(C(N)=O)c(N[C@@H]2CCC[C@@H]2CO)n1 [Example 365, 2-(tert-butylamino)-4-((1R,2S)-2-(hydroxymethyl)cyclopentylamino)pyrimidine-5-carboxamide] | < 200
CC(C)C(C)(C)Nc1ncc(C(N)=O)c(N[C@@H]2CC[C@@H](C)[C@H](O)C2)n1 [Example 366, 2-(2,3-dimethylbutan-2-ylamino)-4-((1R,3R,4R)-3-hydroxy-4-methylcyclohexylamino)pyrimidine-5-carboxamide] | < 200
NC(=O)c1cnc(N[C@H]2CC[C@H](OC3CC3)CC2)nc1NC12CC(C1)C2 [Example 368, 4-(bicyclo[1.1.1]pentan-1-ylamino)-2-((1r,4r)-4-cyclopropoxycyclohexylamino)pyrimidine-5-carboxamide] | < 200
CC(C)CC(C)(C)Nc1nc(N[C@H]2CC[C@H](O)CC2)ncc1C(N)=O [Example 369, 4-(2,4-dimethylpentan-2-ylamino)-2-((1r,4r)-4-hydroxycyclohexylamino)pyrimidine-5-carboxamide] | < 200
COC12CCC(Nc3ncc(C(N)=O)c(NC4CCC[C@](C)(O)C4)n3)(CC1)CC2 (stereo partly drawn) [Example 370, 4-((3S)-3-hydroxy-3-methylcyclohexylamino)-2-(4-methoxybicyclo[2.2.2]octan-1-ylamino)pyrimidine-5-carboxamide] | < 200

The next lines start with the values.

IC50 [nM] | SMILES
< 200 | NC(=O)c1cnc(NC23CC(C2)C3)nc1N[C@@H]1CCCC[C@H](O)C1 [Example 346, 2-(bicyclo[1.1.1]pentan-1-ylamino)-4-((1R,3S)-3-hydroxycycloheptylamino)pyrimidine-5-carboxamide]
< 200 | CCC(C)(C)Nc1ncc(C(N)=O)c(N[C@@H]2CCCC[C@H](O)C2)n1 [Example 349, 4-((1R,3S)-3-hydroxycycloheptylamino)-2-(tert-pentylamino)pyrimidine-5-carboxamide]
< 200 | CCC(C)(C)Nc1ncc(C(N)=O)c(N[C@@H]2CCC[C@](C)(O)C2)n1 [Example 350, 4-((1R,3S)-3-hydroxy-3-methylcyclohexylamino)-2-(tert-pentylamino)pyrimidine-5-carboxamide]
< 200 | CCC(C)(C)Nc1ncc(C(N)=O)c(N[C@@H]2CCC[C@H](O)C2)n1 [Example 351, 4-((1R,3S)-3-hydroxycyclohexylamino)-2-(tert-pentylamino)pyrimidine-5-carboxamide]
< 200 | CC1(Nc2ncc(C(N)=O)c(N[C@@H]3CCCC[C@H](O)C3)n2)CCC1 [Example 352, 4-((1R,3S)-3-hydroxycycloheptylamino)-2-(1-methylcyclobutylamino)pyrimidine-5-carboxamide]
< 200 | NC(=O)c1cnc(N[C@H]2CC[C@H](O)CC2)nc1NC1(C2CC2)CC1 [Example 355, 4-(bi(cycloprop)ylamino)-2-((1r,4r)-4-hydroxycyclohexylamino)pyrimidine-5-carboxamide]
< 200 | CCO[C@H]1CC[C@H](Nc2ncc(C(N)=O)c(NC3(C)CCCCC3)n2)CC1 [Example 359, 2-((1r,4r)-4-ethoxycyclohexylamino)-4-(1-methylcyclohexylamino)pyrimidine-5-carboxamide]
< 200 | CCO[C@H]1CC[C@H](Nc2ncc(C(N)=O)c(NC3(CC)CCC3)n2)CC1 [Example 360, 2-((1r,4r)-4-ethoxycyclohexylamino)-4-(1-ethylcyclobutylamino)pyrimidine-5-carboxamide]
< 200 | CCC1(Nc2nc(N[C@H]3CC[C@H](OC)CC3)ncc2C(N)=O)CCC1 [Example 361, 4-(1-ethylcyclobutylamino)-2-((1r,4r)-4-methoxycyclohexylamino)pyrimidine-5-carboxamide]
< 200 | C[C@@H]1CC[C@@H](Nc2nc(NC3CCCC3)ncc2C(N)=O)C[C@H]1O [Example 364, 2-(cyclopentylamino)-4-((1R,3R,4R)-3-hydroxy-4-methylcyclohexylamino)pyrimidine-5-carboxamide]
< 200 | C[C@@H]1CC[C@@H](Nc2nc(NCC(C)(C)C)ncc2C(N)=O)C[C@H]1O [Example 367, 4-((1R,3R,4R)-3-hydroxy-4-methylcyclohexylamino)-2-(neopentylamino)pyrimidine-5-carboxamide]
